# Measurements published in US8288377B2, “Inhibitors of the interaction between MDM2 and p53” (Janssen Pharmaceutica N.V., priority 2007, dated 2012).
# Tests used:
# [1] = tested on: p53 in A2780 cells; test: p53 ELISA (preservation of p53 in A2780 cells); type: cell-based; conditions: Homo sapiens, treated with compound for 16 hours, read-out: p53-elisa LAD (lowest dose giving at least 140% of the value for p53 present in the control)
# Protocol: The capacity of the compounds to preserve p53 in A2780 cells was measured with the p53 enzyme linked immunosorbent assay (ELISA). The p53 assay is a “sandwich” enzyme immunoassay employing two polyclonal antibodies. A polyclonal antibody, specific for the p53 protein, has been immobilized onto the surface of the plastic wells. Any p53 present in the sample to be assayed will bind to the capture antibody. The biotinylated detector polyclonal antibody also recognizes p53 protein, and will bind to any p53, which has been retained by the capture antibody. The detector antibody, in turn, is bound by horseradish peroxidase-conjugated streptavidin. The horseradish peroxidase catalyses the conversion of the chromogenic substrate o-phenylene diamine, the intensity of which is proportional to the amount of p53 protein bound to the plate. The coloured reaction product is quantified using a spectrophotometer. Quantitation is achieved by the construction of a standard curve using known concentrations of purified recombinant HIS tagged p53 protein (see example C.1).
# A2780 cells (ATCC) were cultivated in RPMI 1640 supplemented with 10% fetal calf serum (FCS), 2 mM L-glutamine and gentamycin at 37° C. in a humidified incubator with 5% CO2.
# A2780 cells were seeded at 20.000 cells per well in a 96 well plate, cultured for 24 hours and treated with compound for 16 hours at 37° C. in a humidified incubator. After incubation, the cells were washed once with phosphate-buffered saline and 30 μl, per well, low salt RIPA buffer (20 mM tris, pH7.0, 0.5 mM EDTA, 1% Nonidet P40, 0.5% DOC, 0.05% SDS, 1 mM PMSF, 1 μg/ml aprotinin and 0.5 μ/ml leupeptin) was added. Plates were placed on ice for 30 minutes to complete the lysis. p53 protein was detected in de lysates by using the sandwich ELISA, described below.
# High binding polystyrene EIA/RIA 96 well plates (Costar 9018) were coated with the capture antibody pAb1801 (Abcam ab28-100) at a concentration of 1 μg/ml in coating buffer (0.1 M NaHCO3 pH8.2), 50 μl per well. The antibody was allowed to adhere overnight at 4° C. Coated plates were washed once with phosphate-buffered saline (PBS)/0.05% Tween 20 and 300 μl of blocking buffer (PBS, 1% bovine serum albumins (BSA)) was added, for an incubation period of 2 hours at room temperature. Dilutions of purified recombinant HIS tagged p53 protein, ranging from 3-200 ng/ml, were made in blocking buffer and used as standards.
# Plates were washed twice with PBS/0.05% Tween 20 and blocking buffer or standards were added at 80 μl/well. To the standards, 20 μl of lysis buffer was added. The samples were added to the other wells at 20 μl lysate/well. After an overnight incubation at 4° C., plates were washed twice with PBS/0.05% Tween 20. Aliquots of 100 μl secondary polyclonal antibody p53(FL-393) (Tebubio, sc-6243) at a concentration of 1 μg/ml in blocking buffer were added to each well and allowed to adhere for 2 hours at room temperature. Plates were washed three times with PBS/0.05% Tween 20. Detection antibody anti-rabbit HRP (sc-2004, Tebubio) at 0.04 μg/ml in PBS/1% BSA was added and incubated for 1 hour at room temperature. Plates were washed three times with PBS/0.05% Tween 20 and 100 μl of substrate buffer was added (substrate buffer was prepared shortly before use by adding 1 tablet of 10 mg o-phenylene diamine (OPD) from Sigma and 125 μl 3% H2O2 to 25 ml OPD buffer: 35 mM citric acid, 66 mM Na2HPO4, pH5.6). After 5 to 10 minutes, colour reaction was stopped by adding 50 μl stop buffer (1 M H2SO4) per well. The absorbance at dual wavelengths of 490/655 nm was measured using a Biorad micro plate reader and the results were then analyzed.
# For each experiment, controls (containing no drug) and a blank incubation (containing no cells or drugs) were run in parallel. The blank value was subtracted from all control and sample values. For each sample, the value of p53 (in absorbance units) was expressed as the percentage of the value for p53 present in the control. […]
# [2] = tested on: A2780 ovarian cancer cells; test: Proliferation assay (Alamar Blue); type: cell-based; conditions: Homo sapiens, 96 h, 4-day incubation, read-out: pIC50 (negative log value of the IC50-value) (converted)
# Protocol: Cellular activity of the compounds of formula (I) was determined on A2780 tumour cells using a colorimetric assay for cell toxicity or survival (see example C.2).
# The human A2780 ovarian cancer cells were a kind gift from Dr. T. C. Hamilton (Fox Chase Cancer Centre, Pennsylvania, U.S.A.). The cells were cultured in RPMI 1640 medium supplemented with 2 mM L-Glutamine, 50 μg/ml gentamicin and 10% fetal calf serum.
# Resazurin was purchased from Aldrich (Prod. No. 199303). Potassium ferrocyanide, potassium ferricyanide, KH2PO4 and K2HPO4 were purchased from Sigma (Prod. Nos. P9387, P8131, P5655 and P8281, respectively).
# Potassium Phosphate Buffer 0.1 M (PPB) was made as follows: 2.72 gram KH2PO4 and 13.86 gram K2HPO4 were dissolved in 500 ml milli-Q H2O, the pH was adjusted to pH 7.4 and the volume was brought to 1 liter with milli-Q H2O; the buffer was filter sterilised and stored at room temperature. Resazurin stock solution (PPB-A) was prepared fresh by dissolving 45 mg resazurin in 15 ml PBS. 30 mM potassium ferricyanide (PPB-B) was prepared by dissolving 0.987 gram potassium ferricyanide in 100 ml PPB. 30 mM potassium ferrocyanide (PPB-C) was prepared by dissolving 1.266 gram potassium ferrocyanide in 100 ml PPB.
# Mixture of PPB-A, PPB-B and PPB-C was prepared by mixing equal volumes of the respective solutions. Resazurin work solution (herein termed “Alamar Blue” solution) was prepared by diluting said mixture 20× (vol/vol) in PPB and filter sterilising; the Alamar Blue solution could be kept at 4° C. for a maximum of 2 weeks.
# For experiments in 384 wells plates the cells were seeded at a density of 5×10^3 cells/ml in Falcon 384-well culture plates (Life Technologies, Merelbeke, Belgium), black with clear bottom, in 45 μl culture medium. Cells were allowed to adhere to plastic for 24 hr. The tested compound was pre-diluted (1/50 in culture medium) and 5 μl pre-diluted compound was added to the wells. Following 4-day incubation, 10 μl of the Alamar Blue solution was added to each well and the cells were further incubated for 5 hrs (A2780) at 37° C. The fluorescence intensity was measured for each well with a Fluorescence plate reader (Fluorskan, Labsystems, 540 nm excitation and 590 nm emission)
# The antiproliferative activity was calculated as percentage of remaining viable cells in treated versus control (untreated cells) conditions. Within an experiment, the result for each experimental condition is the mean of 3 replicate wells. When appropriate, the experiments were repeated to establish full concentration-response curves. When appropriate, IC50-values (concentration of the drug, needed to reduce cell growth to 50% of the control) were computed using probit analysis for graded data (Finney, D. J., Probit Analyses, 2nd Ed. Chapter 10, Graded Responses, Cambridge University Press, Cambridge 1962). Herein the effects of test compounds are expressed as pIC50 (the negative log value of the IC50-value) (see Table 4).
SMILES,minimal effective concentration [1] [µM],IC50 [2] [µM]
CCC1(C)CN(CCc2c[nH]c3ccccc23)c2ccc(Nc3ccnc4c3CCC4O)cc2O1 (stereo not drawn) [Compound 27],1,5.13
OC1CCc2c(Nc3ccc4c(c3)OC3(CCCC3)CN4CCc3c[nH]c4ccccc34)ccnc21 (stereo not drawn) [Compound 28],3,4.9
OC1CCc2c(Nc3ccc4c(c3)OC3(CCCCC3)CN4CCc3c[nH]c4ccccc34)ccnc21 (stereo not drawn) [Compound 29],10,~5.13
OC1CCc2c(Nc3ccc4c(c3)OC3(CCOCC3)CN4CCc3c[nH]c4ccccc34)ccnc21 (stereo not drawn) [Compound 30],> 10,6.31
OC1CCc2c(Nc3ccc4c(c3)OC3(CCNCC3)CN4CCc3c[nH]c4ccccc34)ccnc21 (stereo not drawn) [Compound 31],> 10,> 10
CC(C)N1CCC2(CC1)CN(CCc1c[nH]c3ccccc13)c1ccc(Nc3ccnc4c3CCC4O)cc1O2 (stereo not drawn) [Compound 33],> 10,2.19
Cc1cccc2c(CCN3CC4(CCCCC4)Oc4cc(Nc5ccnc(CO)c5)ccc43)c[nH]c12 [Compound 34],0.3,4.37
OCc1cc(Nc2ccc3c(c2)OC(c2ccoc2)CN3CCc2c[nH]c3ccccc23)ccn1 (stereo not drawn) [Compound 35],3,~5.13
CC(C)N1CCC2(CC1)CN(CCc1c[nH]c3ccccc13)c1ccc(Nc3ccnc(CO)c3)cc1O2 [Compound 36],> 10,3.39
Cc1cccc2c(CCN3CC(C)Oc4cc(Nc5ccnc(CO)c5)ccc43)c[nH]c12 (stereo not drawn) [Compound 37],> 10,3.55
Cc1cccc2c(CCN3CC(C)(C)Oc4cc(Nc5ccnc(CO)c5)ccc43)c[nH]c12 [Compound 38],> 10,3.72
OCc1cc(Nc2ccc3c(c2)OC2(CCSCC2)CN3CCc2c[nH]c3ccccc23)ccn1 [Compound 39],> 10,~4.79
OCc1cc(Nc2ccc3c(c2)OC2(CCCC2)CN3CCc2c[nH]c3ccccc23)ccn1 [Compound 40],> 10,~4.79
OCc1cc(Nc2ccc3c(c2)OC2(CCCCC2)CN3CCc2c[nH]c3ccccc23)ccn1 [Compound 41],> 10,~4.79
Cc1cccc2c(CCN3CC(C)Oc4cc(Nc5ccnc6c5CCC6O)ccc43)c[nH]c12 (stereo not drawn) [Compound 42],> 10,4.79
CN1CCC2(CC1)CN(CCc1c[nH]c3ccccc13)c1ccc(Nc3ccnc(CO)c3)cc1O2 [Compound 43],> 10,~5.01
Cc1cccc2c(CCN3CC(C)(C)Oc4cc(Nc5ccnc6c5CCC6O)ccc43)c[nH]c12 (stereo not drawn) [Compound 44],> 10,5.01

SMILES,minimal effective concentration [1] [µM],IC50 [2] [µM]
OCc1cc(Nc2ccc3c(c2)OC2(CCOCC2)CN3CCc2c[nH]c3ccccc23)ccn1 [Compound 45],> 10,6.31
CCC1(C)CN(CCc2c[nH]c3ccccc23)c2ccc(Nc3ccnc(CO)c3)cc2O1 (stereo not drawn) [Compound 46],> 10,6.92
COc1cccc2c(CCN3CCOc4cc(Nc5ccncc5)ccc43)c[nH]c12 [Compound 47],> 10,~6.46
Cc1cccc2c(CCN3CCOc4cc(Nc5ccncc5)ccc43)c[nH]c12 [Compound 48],> 10,3.47
c1ccc2c(CCN3CCOc4cc(Nc5ccncc5)ccc43)coc2c1 [Compound 49],> 10,4.79
Fc1cc(Nc2ccncc2)cc2c1N(CCc1c[nH]c3ccccc13)CCO2 [Compound 50],> 10,8.13
CN1CCC2(CC1)CN(CCc1c[nH]c3ccccc13)c1ccc(Nc3ccncc3)cc1O2 [Compound 51],> 10,3.02
Cc1cccc2c(CCN3CC(C)(C)Oc4cc(Nc5ccncc5)ccc43)c[nH]c12 [Compound 52],> 10,3.09
Cc1cccc2c(CCN3CC(C)Oc4cc(Nc5ccncc5)ccc43)coc12 (stereo not drawn) [Compound 53],> 10,3.47
CCC1(C)CN(CCc2c[nH]c3ccccc23)c2ccc(Nc3ccncc3)cc2O1 (stereo not drawn) [Compound 54],> 10,3.63
c1ccc2c(CCN3CC4(CCCCC4)Oc4cc(Nc5ccncc5)ccc43)c[nH]c2c1 [Compound 55],> 10,3.72
c1ccc2c(CCN3CC4(CCSCC4)Oc4cc(Nc5ccncc5)ccc43)c[nH]c2c1 [Compound 56],> 10,~4.79
Cc1cccc2c(CCN3CC4(CCCCC4)Oc4cc(Nc5ccncc5)ccc43)c[nH]c12 [Compound 59],> 10,2.45
CC1Oc2cc(Nc3ccncc3)ccc2N(CCc2c[nH]c3ccccc23)C1=O (stereo not drawn) [Compound 61],> 10,> 10
CC1(C)CN(CCc2c[nH]c3ccccc23)c2ccc(Nc3ccncc3)cc2O1 [Compound 62],> 10,5.37
CC1(C)Oc2cc(Nc3ccncc3)ccc2N(CCc2c[nH]c3ccccc23)C1=O [Compound 63],> 10,> 10
